Results from PubChem BioAssay AID2060497 (Molecular Pharmacology Branch, DTP, NCI, 2025).

System: 317291-083-R-J1-PDC complex spheroids, viability
Test: Anticancer human tumor 317291-083-R-J1-PDC patient-derived soft tissue sarcoma cell line growth inhibition [GQUAD]
Settings: for IC50: curve of first compound; for viability, T/C: stronger effect = lower value; active means viability on the fitted dose curve at most 10% of control; inactive means the rest
Procedure, shortened: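 Multi-cell-type spheroids of tumor cells with HUVEC and mesenchymal stem cells, treated with drug combinations. Concentrations descend in half-log steps from near clinical Cmax, or from 10 microM where Cmax is unknown; viability read-out.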

[1] = second compound 0.0316 µM, first compound 0.0316 µM
[2] = second compound 0.0316 µM, first compound 0.316 µM
[3] = second compound 0.1 µM, first compound 0.0316 µM
[4] = second compound 0.1 µM, first compound 0.316 µM
[5] = second compound 0.316 µM, first compound 0.0316 µM
[6] = second compound 0.316 µM, first compound 0.316 µM
[7] = second compound 1 µM, first compound 0.0316 µM
[8] = second compound 1 µM, first compound 0.316 µM
[9] = second compound 3.16 µM, first compound 0.0316 µM
[10] = second compound 3.16 µM, first compound 0.316 µM
[11] = second compound 10 µM, first compound 0.0316 µM
[12] = second compound 10 µM, first compound 0.316 µM
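Further: spheroids exposed to compounds for one week before readout.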
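Wherever viability, T/C is given: percent viability relative to DMSO vehicle wells taken as 100%.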

CCc1c2c(nc3ccc(O)cc13)-c1cc3c(c(=O)n1C2)COC(=O)[C@]3(O)CC + Cc1cnc(CNC(=O)c2c(=O)c3ccc(N4CCCN(C)CC4)nc3n3c2sc2ccccc23)cn1
< 0.999 nM: IC50 (second compound 0.0316 µM) | IC50 (second compound 0.1 µM) | IC50 (second compound 0.316 µM) | IC50 (second compound 1 µM) | IC50 (second compound 3.16 µM) | IC50 (second compound 10 µM)
inactive: viability, T/C (second compound 0.0316 µM, first compound 0.000999 µM) 39.3% | viability, T/C (second compound 0.0316 µM, first compound 0.00316 µM) 18% | viability, T/C (second compound 0.0316 µM, first compound 0.00999 µM) 10.7% | viability, T/C (second compound 0.1 µM, first compound 0.000999 µM) 33.9% | viability, T/C (second compound 0.1 µM, first compound 0.00316 µM) 16% | viability, T/C (second compound 0.1 µM, first compound 0.00999 µM) 11.3% | viability, T/C (second compound 0.316 µM, first compound 0.000999 µM) 20.6% | viability, T/C (second compound 0.316 µM, first compound 0.00316 µM) 21.5% | viability, T/C (second compound 0.316 µM, first compound 0.00999 µM) 15.5% | viability, T/C [5] 9.82% | viability, T/C (second compound 1 µM, first compound 0.000999 µM) 21.9% | viability, T/C (second compound 1 µM, first compound 0.00316 µM) 25.9% | viability, T/C (second compound 1 µM, first compound 0.00999 µM) 11.1% | viability, T/C [7] 9.26% | viability, T/C (second compound 3.16 µM, first compound 0.000999 µM) 26.1% | viability, T/C (second compound 3.16 µM, first compound 0.00316 µM) 14.9% | viability, T/C (second compound 10 µM, first compound 0.000999 µM) 15.2% | viability, T/C (second compound 10 µM, first compound 0.00316 µM) 7.77%
active: viability, T/C [1] 7.46% | viability, T/C (second compound 0.0316 µM, first compound 0.0999 µM) 9.54% | viability, T/C [2] 5.6% | viability, T/C [3] 13.6% | viability, T/C (second compound 0.1 µM, first compound 0.0999 µM) 5.29% | viability, T/C [4] 3.08% | viability, T/C (second compound 0.316 µM, first compound 0.0999 µM) 7.3% | viability, T/C [6] 2.31% | viability, T/C (second compound 1 µM, first compound 0.0999 µM) 12.2% | viability, T/C [8] 1.09% | viability, T/C (second compound 3.16 µM, first compound 0.00999 µM) 9.17% | viability, T/C [9] 2.26% | viability, T/C (second compound 3.16 µM, first compound 0.0999 µM) 2.54% | viability, T/C [10] 0.17% | viability, T/C (second compound 10 µM, first compound 0.00999 µM) 8.64% | viability, T/C [11] 8.52% | viability, T/C (second compound 10 µM, first compound 0.0999 µM) 6.98% | viability, T/C [12] 0.18%

CC1COCCN1c1cc(C2(S(C)(=N)=O)CC2)nc(-c2ccnc3[nH]ccc23)n1 (centres undefined) + Cc1[nH]c2ccc(F)cc2c1-c1nc2c3cccnc3c3ncccc3c2[nH]1
inactive: viability, T/C [1] 109% | viability, T/C (second compound 0.0316 µM, first compound 0.1 µM) 112% | viability, T/C [2] 90.5% | viability, T/C (second compound 0.0316 µM, first compound 1 µM) 64% | viability, T/C (second compound 0.0316 µM, first compound 3.16 µM) 27.9% | viability, T/C (second compound 0.0316 µM, first compound 10 µM) 15.4% | viability, T/C [3] 93.3% | viability, T/C (second compound 0.1 µM, first compound 0.1 µM) 93.9% | viability, T/C [4] 85.8% | viability, T/C (second compound 0.1 µM, first compound 1 µM) 57.7% | viability, T/C (second compound 0.1 µM, first compound 3.16 µM) 25.2% | viability, T/C (second compound 0.1 µM, first compound 10 µM) 13.2% | viability, T/C [5] 91.5% | viability, T/C (second compound 0.316 µM, first compound 0.1 µM) 98.6% | viability, T/C [6] 88.7% | viability, T/C (second compound 0.316 µM, first compound 1 µM) 59% | viability, T/C (second compound 0.316 µM, first compound 3.16 µM) 24.3% | viability, T/C (second compound 0.316 µM, first compound 10 µM) 14.7% | viability, T/C [7] 101% | viability, T/C (second compound 1 µM, first compound 0.1 µM) 97.5% | viability, T/C [8] 97.3% | viability, T/C (second compound 1 µM, first compound 1 µM) 54.8% | viability, T/C (second compound 1 µM, first compound 3.16 µM) 22.1% | viability, T/C (second compound 1 µM, first compound 10 µM) 11.3% | viability, T/C [9] 84% | viability, T/C (second compound 3.16 µM, first compound 0.1 µM) 82.8% | viability, T/C [10] 78% | viability, T/C (second compound 3.16 µM, first compound 1 µM) 42.5% | viability, T/C (second compound 3.16 µM, first compound 3.16 µM) 17.7% | viability, T/C (second compound 3.16 µM, first compound 10 µM) 11% | viability, T/C [11] 53% | viability, T/C (second compound 10 µM, first compound 0.1 µM) 61.5% | viability, T/C [12] 86.4% | viability, T/C (second compound 10 µM, first compound 1 µM) 37.4% | viability, T/C (second compound 10 µM, first compound 3.16 µM) 16.8% | viability, T/C (second compound 10 µM, first compound 10 µM) 8.56%
613 nM: IC50 (second compound 10 µM)
792 nM: IC50 (second compound 3.16 µM)
1350 nM: IC50 (second compound 0.316 µM)
1320 nM: IC50 (second compound 0.1 µM)
1210 nM: IC50 (second compound 1 µM)
1530 nM: IC50 (second compound 0.0316 µM)
